The values below come from patent US11980594B2, “Composition and method for treating a drug-resistant cancer” (NOVELWISE PHARMACEUTICAL CORPORATION, priority 2021, dated 2024).

Molecules are shown by their SMILES.

The subject of one series is HCT116 cells. Put plainly: Annexin V/PI flow cytometric analysis of apoptosis, HCT116. As to conditions: BMX, 48 hrs. The format is cell-based, human. The method, then:
(§1) Apoptosis induction in different doses of BMX (0-10 μM) in the presence or absence of TMZ (50 μM) was assayed by the detection of membrane externalization of phosphatidylserine with the with the CF®488A Annexin V and PI Apoptosis Kit (Fremont, Calif., USA) following the manufacturer's instructions. All samples were then immediately analyzed by flow cytometry.
(A flow cytometer gives signals particle by particle.)

The conditions of series [1]: statement from literature; cited from earlier work.
Series [2] has as its target T1, HDAC8 (Homo sapiens, UniProt Q9BY41).
T1 sequence (Q9BY41 1-377): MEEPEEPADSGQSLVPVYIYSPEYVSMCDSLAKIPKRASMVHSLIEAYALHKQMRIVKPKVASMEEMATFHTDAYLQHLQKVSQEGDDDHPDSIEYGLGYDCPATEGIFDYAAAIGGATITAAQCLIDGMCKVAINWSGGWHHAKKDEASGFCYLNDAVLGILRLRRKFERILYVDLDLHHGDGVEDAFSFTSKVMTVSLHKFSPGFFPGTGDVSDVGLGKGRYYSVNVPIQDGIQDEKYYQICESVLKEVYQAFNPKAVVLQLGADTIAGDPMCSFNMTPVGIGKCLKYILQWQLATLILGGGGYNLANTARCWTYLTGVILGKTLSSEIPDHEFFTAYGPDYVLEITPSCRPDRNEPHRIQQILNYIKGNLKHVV
The note with it: statement from literature [22]; cited from earlier work.

The next series concerns RKO cells. Put plainly: Annexin V/PI flow cytometric analysis of apoptosis, RKO. The series is classed as cell-based, human. The note with it: BMX, 48 hrs. The method, then:
as §1

For a further series, the system named is U87MG-R cells. The experiment in a line: Flow cytometric analysis of the DNA cell cycle, U87MG-R. The format is cell-based, human. As to conditions: 10 μM BMX alone, 48 hrs. The method, then: (§2) For the DNA cell cycle, following treatment with different doses of BMX (0-10 μM) in the presence or absence of TMZ (50 μM) for 48 hrs, the cells were harvested through trypsinization, washed twice with phosphate-buffered saline, and fixed in methanol. The cells were then washed again, subjected to RNase A at a final concentration of 0.05 mg/mL (Sigma-Aldrich; Merck Millipore, Darmstadt, Germany), and incubated with 10 μg/mL propidium iodide (PI; Sigma-Aldrich; Merck Millipore) at 4° C. for 15 min in the dark. Cell cycle analysis was conducted using a fluorescence-activated cell sorting (FACS) flow cytometer (Attune NxT flow cytometer, Thermo Fisher Scientific).

The next series has as its system P62 and LC3-II. The experiment in a line: Western blot of autophagy markers in CRC cells. The series is classed as cell-based, human. The note with it: HT29, HCT116 and RKO cells; BMX (5 and 10 μM) with or without 50 μM TMZ; FIG. 18A. How it is done: Western blot analysis was used to examine the indicated protein expression levels under various concentrations of BMX (0-10 μM), and SAHA, VPA or PCI-34051 in the presence or absence of TMZ (50 μM) or OXP (5 μM) of the tested cell lines. SDS-PAGE and Western blot analysis was performed on lysates prepared as outlined previously. The specific primary antibodies against acetyl-histone H3 (Lys9/Lys14), acetyl-histone H4 (Lys8), P53, acetyl-p53 (Lys382), phospho-p53 (Ser15), P21, P16, MGMT, phosphor-H2AX (S139), E2F1, E2F3, Cleaved Caspase-3, Cleaved Caspase-8, Cleaved Caspase-7, Cleaved Caspase-9, PARP, Bax, Bcl-2, Bid, Bim, Bak, Puma, β-catenin, phospho-β-catenin(Ser/33/37/41), GSK3β, phospho-GSK3β (Ser 9), c-Myc, Cyclin D1, P62, LC3B, CD133, CD44, SOX-2 and HDAC8 were used for detection, and GAPDH, α-tubulin or β-actin was used as the internal control. After incubation with the primary antibodies, and then incubated with horseradish peroxidase (HRP)-conjugated secondary antibodies, the HRP signals were detected with a chemical HRP substrate. Signal of each target protein was visualized by incubation with an enhanced chemiluminescent reagent and exposure to X-ray film.

The subject of a further series is c-Myc and cyclin D1. Put plainly: Western blot of c-Myc and cyclin D1 in GBM-R cells. The format is cell-based, human. As to conditions: 5 or 10 μM BMX with or without 50 μM TMZ, 48 hrs, FIG. 3B. How it is done: (§3) The cells were collected and lysed in RIPA lysis buffer (EMD Millipore Billerica, Mass., USA, 10×RIPA buffer) containing a protease inhibitor. Protein concentration was determined using a protein assay kit (Bio-Rad Laboratories, Hercules, Calif., USA). The SDS loading buffer was mixed with the protein samples. Proteins (20 μg/lane) were separated using 8%-12% SDS-PAGE and transferred to a PVDF membrane, which was blocked with 5% bovine serum albumin at room temperature for 1 hr in tris-buffered saline (TBS)-Tween 20 (0.5%; TBS-T), incubated with primary antibodies overnight at […], and then incubated with horseradish peroxidase (HRP)-conjugated secondary antibodies at room temperature for 1 hr. After washing thoroughly with TBS-T, the HRP signals were detected with a chemical HRP substrate. Signal of each target protein was visualized by incubation with an enhanced chemiluminescent reagent and exposure to X-ray film.

For a further series, the system named is β-catenin. Put plainly: Western blot of β-catenin in GBM-R cells. The series is classed as cell-based, human. As to conditions: U87R and A172R cells; 10 μM BMX with or without 50 μM TMZ; 48 hrs; FIG. 3A. How it is done:
as §3
(In western blotting, separated proteins are transferred to a membrane and probed.)

Series [3] relates to HDAC8. Put plainly: HDAC8 mRNA (qRT-PCR) and protein (Western blot) expression in GBM and GBM-R cell lines. The series is classed as cell-based, human. As to conditions: four cell lines (U87MG, U87MG-R, A172, A172-R); BMX 0-10 μM; FIGS. 9A and 9B. How it is done: The ABI Prism® 7700 Sequence Detection System (Applied Biosystems, Foster City, Calif., USA) was used for quantitative analysis of mRNA expression. The cells (2×10^5) were seeded in 6-well plates, and total RNA was extracted using Tissue Total RNA Mini Kit (Geneaid, Taipei, Taiwan). A 10-ng sample of total RNA was transcribed into cDNA by using a High-Capacity cDNA Reverse Transcription Kit (Applied Biosystems). Gene expression was quantified using Fast SYBR Green Master Mix (Applied Biosystems) following the procedures provided by the manufacturer, with 18s as the inner reference. All procedures were performed according to the manufacturer's protocols. The thermocycling conditions were as follows: 50° C. for 2 min, 95° C. for 10 min, and 40 cycles of 95° C. for 15 s and 60° C. for […]. Each sample was analyzed in triplicate. The threshold cycle (Ct) values were calculated using the StepOnePlus (Applied Biosystems) software. The relative expression of each mRNA was calculated using the 2-(ΔCt) method. […]
The cells were collected and lysed in RIPA lysis buffer (EMD Millipore Billerica, Mass., USA, 10×RIPA buffer) containing a protease inhibitor. Protein concentration was determined using a protein assay kit (Bio-Rad Laboratories, Hercules, Calif., USA). […] After washing thoroughly with TBS-T, the HRP signals were detected with a chemical HRP substrate. […]
On the technique in general: Quantitative PCR measures a nucleic acid by following its amplification.

A further series deals with A172-R cells. The experiment in a line: Flow cytometric analysis of the DNA cell cycle, A172-R. The series is classed as cell-based, human. The note with it: 10 μM BMX alone, 48 hrs. How it is done: as §2
The conditions of series [4]: statement from literature [22]; cited from earlier work.

`COc1ccc(COc2c(/C=C/C(=O)NO)ccc(OC)c2CC=C(C)C)cc1` [BMX, (E)-2-(4-Methoxybenzyloxy)-3-prenyl-4-methoxy-N-hydroxycinamide]: the early apoptotic cells with HCT116 cells is no more than 49.34%; in the series with RKO cells it was no more than 59.18%. Also, the blood-brain barrier penetration result in [1] is given as “ability to cross the blood-brain barrier”. For the same compound, on HDAC8 [2], the HDAC isoform selectivity result is listed as “isoform-selective HDAC8 inhibitor”. Moreover, the “cells arrested in G0/G1 phase” value with U87MG-R cells is listed as 77.95%; in the series with A172-R cells, 70.34%. The “expression of P62 and LC3-II” value in the series on P62 and LC3-II was “concentration-dependent increase in the expression of P62 and LC3-II”. For the same compound, the “levels of proliferative markers c-Myc and cyclin D1” value in the series with c-Myc and cyclin D1 is on record as “could decrease their levels”. In the series on β-catenin, the “protein levels of β-catenin” value is listed as “only slightly reduced these levels”. Moreover, the “HDAC8 mRNA and protein expression” value with HDAC8 [3] is “inhibition of HDAC8 mRNA and protein expression”. The toxicity result in [4] is “lowest toxicity”.

Turning to `Cn1nnc2c(C(N)=O)ncn2c1=O` [TMZ, Temozolomide, reference compound], the blood-brain barrier penetration entry in series [1] is “good penetration of the blood-brain barrier”.
